Results reported in patent US9629899B2, “Targeted cargo protein combination therapy” (priority 2008, dated 2017).

What was measured:
Capan-1 cells = test: cells; type: cell-based, human
[1] = tested on: clinical pancreatic cancer sample xenograft; test: Advanced orthotopic pancreatic cancer model from a clinical sample, survival; type: in vivo; conditions: clinical sample in SCID mice, treatment from day 31; gemcitabine 150 mg/kg i.p. twice a week; PRX321 100 ug/kg i.p. twice a day days 31-35; non-treatment 62 days
Description: Primary and orthotopic pancreatic cancer model using a clinical sample. […] Viable tumor tissue from specimen was cut into small pieces (3% 3% 3 mm) and implanted in the pancreas of 5- to 6-week-old male SCID mice. Primary xenografts were propagated continuously in SCID mice for in vivo testing. Clinical sample-bearing mice were also treated after day 31 by the same protocol as described above.
(§1) Statistical analysis. The mean tumor volume in therapeutic and control groups was analyzed by ANOVA. Survival curves were generated by Kaplan-Meier method and compared by using the log-rank test.
These mice, when advanced disease developed, were divided into four groups on day 31 and treated as described in Materials and Methods. […] Group 2 animals received gemcitabine (150 mg/kg) by i.p. administration twice a week as long as the experiment lasted.

HS766T cells = test: Protein synthesis inhibition assay (cytotoxicity), HS766T; type: cell-based; conditions: Homo sapiens, read-out: IC50 (50% protein synthesis inhibition), single agent
Description: Protein synthesis inhibition assay and assessment of synergism or antagonism. […] On the basis of the isobologram analysis for mutually exclusive effects, the CI value was calculated as follows:

SW1990 cells = test: cells; type: cell-based, human
MIA-PaCa-2-GFP tumors [2] = test: Advanced metastatic pancreatic tumor model, orthotopic MIA-PaCa-2-GFP, whole-body imaging and survival; type: in vivo, nude mice
Description: (§2) Surgical orthotopic implantation of MIA-PaCa-2-GFP tumors. MIA-PaCa-2-GFP cells were injected s.c. into the right dorsal flank of nude mice. Pancreatic tumors, grown s.c. in nude mice, were cut with scissors and minced into f3% 3% 3-mm pieces. For orthotopic surgery, the pancreas was carefully exposed, and tumor chunks were transplanted on the middle of the pancreas with a 6-0 Dexon surgical suture (Davis-Geck, Inc.). The pancreas was then returned to the peritoneal cavity, the abdominal wall, and the skin was closed with 6-0 Dexon sutures.
For advanced pancreatic cancer model, primary and metastasis tumor lesions were detected by external whole-body imaging on day 14 post-transplantation of tumor chunk and randomized into four groups of 10 mice each. Treatment was initiated on day 15.
The mean tumor volume in therapeutic and control groups was analyzed by ANOVA. Survival curves were generated by Kaplan-Meier method and compared by using the log-rank test.
Group 2 animals received gemcitabine (150 mg/kg) by i.p. administration twice a week as long as the experiment lasted.

[3] = mice receiving optimal doses; data not shown
MIA-PaCa-2-GFP tumors [4] = test: Early pancreatic tumor model, orthotopic MIA-PaCa-2-GFP, whole-body imaging and survival; type: in vivo, nude mice
Description: as §2
Experimental design and treatment. For early pancreatic cancer model, primary tumor lesions were detected by external whole-body imaging on day 4 after transplantation. Once the tumors were visualized, mice were randomized into four groups of 10 each. Treatment was initiated on day 5. For advanced pancreatic cancer model, primary and metastasis tumor lesions were detected by external whole-body imaging on day 14 post-transplantation of tumor chunk and randomized into four groups of 10 mice each. Treatment was initiated on day 15.
as §1
Treatment was initiated on day 5 after transplantation. […]

MIA-PaCa-2 cells = test: cells; type: cell-based, human
[5] = Homo sapiens, read-out: IC50 (50% protein synthesis inhibition), single agent

With Nc1ccn([C@@H]2O[C@H](CO)[C@@H](O)C2(F)F)c(=O)n1 [Gemcitabine] the IC50 (Capan-1 cells; [5]) was 3.2 nM, the “IC75 (75% protein synthesis inhibition)” value (Capan-1 cells; single agent) was 9 nM and the Median survival time [1] was 86 days. For the same compound, the IC50 (HS766T cells) was 14 nM, the IC50 (SW1990 cells; [5]) was 1000 nM and the “IC75 (75% protein synthesis inhibition)” value (SW1990 cells; single agent) was 3,000 nmol/L. For the same compound, the “Reduction in tumor size on day 28 compared with the no treatment group” value (MIA-PaCa-2-GFP tumors [2]; day 28) was 39.8%, the Median survival time (MIA-PaCa-2-GFP tumors [2]; non-treatment group 28 days) was 34 days and the “Tumor growth compared with non-treatment group (whole-body imaging)” value (MIA-PaCa-2-GFP tumors [2]; treatment from day 15, gemcitabine 150 mg/kg i.p. twice a week, PRX321 100 ug/kg i.p. twice a day for 5 days) was “reduction in the rate of tumor growth”. The “Visible signs of toxicity (weight loss, inactivity)” value [3] was “no visible signs of toxicity”, the Median survival time (MIA-PaCa-2-GFP tumors [4]; non-treatment group 27 days) was 54 days and the “Tumor growth compared with non-treatment group (whole-body imaging)” value (MIA-PaCa-2-GFP tumors [4]; treatment from day 5, gemcitabine 150 mg/kg i.p. twice a week, PRX321 100 ug/kg i.p. twice a day for 5 days) was “reduction in the rate of tumor growth”. For the same compound, the IC50 (MIA-PaCa-2 cells; [5]) was 22 nM and the “IC75 (75% protein synthesis inhibition)” value (MIA-PaCa-2 cells; single agent) was 280 nM.
